Data reported in patent US8188078B2 (Sanofi-Aventis, priority 2007, dated 2012).
pIC50: −log10 of the molar value. Counter-ions that a name gives are not always drawn.

Key:
c-MET = target: T1, c-MET (Homo sapiens, UniProt P08581); experiment: Test A: HTRF Met test in 96-well format; type: biochemical
T1 construct: The recombinant DNA His-Tev-MET (956-1390) in pFastBac(Invitrogen); His (N, cleaved yes); Tev (TEV protease site) (N, cleaved yes); made in house; host or cells: SF21 insect cells (baculovirus, pFastBac)
T1 sequence (P08581 956-1390): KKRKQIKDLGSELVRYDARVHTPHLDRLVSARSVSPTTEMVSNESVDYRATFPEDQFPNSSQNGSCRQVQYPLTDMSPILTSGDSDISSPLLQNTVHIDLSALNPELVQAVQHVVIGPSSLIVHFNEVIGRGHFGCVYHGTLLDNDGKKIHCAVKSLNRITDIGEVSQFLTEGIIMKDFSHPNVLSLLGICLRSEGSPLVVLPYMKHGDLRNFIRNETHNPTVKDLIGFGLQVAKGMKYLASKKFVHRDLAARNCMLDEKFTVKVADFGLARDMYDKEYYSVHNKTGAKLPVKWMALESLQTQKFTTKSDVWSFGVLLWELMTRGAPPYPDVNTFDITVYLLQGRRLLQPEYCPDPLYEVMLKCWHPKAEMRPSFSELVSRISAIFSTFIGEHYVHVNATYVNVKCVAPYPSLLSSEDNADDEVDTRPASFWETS
Procedure, shortened: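 Percent inhibition was calculated from the HTRF 665/620 ratio, using Eu-cryptate anti-phosphotyrosine PT66 plus streptavidin-XL added with EDTA and read after 2 h. The reaction ran 10 min at room temperature: 5 nM tag-cleaved MET (956–1390), 10 µM ATP, 1 µg/ml poly-GAT, and compound from 0.17 nM to 10 µM in 3% DMSO.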

MKN45 cells = experiment: Test D: cellular proliferation by 14C-thymidine pulse, MKN45 cells; type: cell-based; conditions: Homo sapiens, MKN-45, cellular proliferation by 14C-thymidine pulse; cell line not stated (HCT116 or MKN45)
Procedure, shortened: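 MKN45 cells (7500/well, RPMI + 10% foetal calf serum) treated with 10 concentrations, 10000 to 0.3 nM in 3-fold steps, duplicate. 14C-thymidine (0.1 μCi/well) added at 72 h; incorporation counted after 24 h pulse, 96 h total treatment.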

RON = RON (Homo sapiens, UniProt Q04912); experiment: Test B: HTRF RON test in 96-well format; type: biochemical
Chain of RON (Q04912 25-1400): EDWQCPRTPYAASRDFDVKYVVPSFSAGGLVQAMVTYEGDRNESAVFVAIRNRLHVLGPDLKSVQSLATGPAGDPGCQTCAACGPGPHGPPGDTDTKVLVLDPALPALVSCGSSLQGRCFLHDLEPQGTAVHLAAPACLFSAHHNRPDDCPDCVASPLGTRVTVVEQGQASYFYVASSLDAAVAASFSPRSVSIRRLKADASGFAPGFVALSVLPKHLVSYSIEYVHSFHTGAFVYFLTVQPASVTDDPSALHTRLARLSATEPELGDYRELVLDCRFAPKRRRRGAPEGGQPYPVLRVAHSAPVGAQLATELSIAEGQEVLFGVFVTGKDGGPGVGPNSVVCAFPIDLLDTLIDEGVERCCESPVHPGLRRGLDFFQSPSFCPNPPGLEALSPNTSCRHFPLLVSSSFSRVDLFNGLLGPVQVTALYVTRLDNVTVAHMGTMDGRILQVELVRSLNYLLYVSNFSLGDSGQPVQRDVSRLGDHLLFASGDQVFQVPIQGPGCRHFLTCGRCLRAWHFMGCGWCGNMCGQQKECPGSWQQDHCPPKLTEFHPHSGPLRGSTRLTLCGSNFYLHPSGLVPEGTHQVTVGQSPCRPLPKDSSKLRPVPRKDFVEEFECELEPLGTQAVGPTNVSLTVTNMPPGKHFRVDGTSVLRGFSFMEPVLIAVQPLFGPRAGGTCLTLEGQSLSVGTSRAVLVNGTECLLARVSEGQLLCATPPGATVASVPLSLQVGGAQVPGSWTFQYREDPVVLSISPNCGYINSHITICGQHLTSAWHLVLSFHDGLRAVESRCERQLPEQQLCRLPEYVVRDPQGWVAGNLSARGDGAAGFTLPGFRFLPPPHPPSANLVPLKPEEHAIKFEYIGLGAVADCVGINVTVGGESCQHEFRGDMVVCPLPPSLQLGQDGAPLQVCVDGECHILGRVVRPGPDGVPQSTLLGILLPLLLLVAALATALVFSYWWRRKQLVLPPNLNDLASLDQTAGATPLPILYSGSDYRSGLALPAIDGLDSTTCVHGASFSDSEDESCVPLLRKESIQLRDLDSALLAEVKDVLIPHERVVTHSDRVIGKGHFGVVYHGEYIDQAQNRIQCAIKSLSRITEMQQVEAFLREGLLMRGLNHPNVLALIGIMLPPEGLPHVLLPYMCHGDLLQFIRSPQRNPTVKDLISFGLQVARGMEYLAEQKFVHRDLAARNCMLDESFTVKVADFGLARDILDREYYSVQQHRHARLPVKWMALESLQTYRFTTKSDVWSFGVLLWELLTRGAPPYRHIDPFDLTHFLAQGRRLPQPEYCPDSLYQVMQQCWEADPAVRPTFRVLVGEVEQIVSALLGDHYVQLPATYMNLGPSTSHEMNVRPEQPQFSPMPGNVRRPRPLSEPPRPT
Description: B) HTRF RON Test in 96-Well Format
The inhibitory potency (IC50) of molecules on the enzymatic activity of kinase phosphorylation RON is determined by the HTRF technique. The activity of the kinase is evaluated by measuring the phosphorylation of the substrate polyGAT by the enzyme, in the presence of ATP.
Final RON 5 nM is incubated in the presence of the molecule to be tested (for a final concentration range from 0.17 nM to 10 μM, final DMSO 3%) in buffer MOPS 10 mM pH 7, DTT 1 mM, Tween 20 0.01%. This pre-incubation is performed in 96 half-well black plates in a volume of 35 μl for 30 minutes at room temperature.
The reaction is initiated by adding 15 μl of a mixture of substrates constituted of biotinylated poly-(GAT) 1 μg/ml final and ATP 10 μM final in the presence of MgCl2 5 mM final for a final volume of 50 μl.
After incubation for 30 min at room temperature, the reaction is stopped with 30 μl of a mixture of Hepes 100 mM final pH 7, potassium fluoride 400 mM final, BSA 0.1% and EDTA 133 mM in the presence of 80 ng per well of antibodies Streptavidin ITS-XL665 Cis-Bio Int. and 18 ng per well of anti-phosphotyrosine PT66 labelled with europium cryptate.
After incubation for 2 hours at room temperature, reading is carried out at 2 wavelengths 620 nm and 665 nm in a Genios TECAN reader for the TRACE/HTRF technique and the percentage inhibition is calculated according to the 665/620 ratios.

Structure (SMILES): O=C(NCCN1CCOCC1)Nc1nc2cc(F)c(OCc3c(Cl)cccc3Cl)cc2s1 [Example 21, 1-{6-[(2,6-dichlorobenzyl)oxy]-5-fluoro-1,3-benzothiazol-2-yl}-3-(2-morpholin-4-ylethyl)urea]
- pIC50 (c-MET): > 7.00
- pIC50 (MKN45 cells): 5.00 to 6.30
- pIC50 (RON): 5.00 to 6.30

Structure (SMILES): CC(Oc1ccc2nc(NC(=O)NCCN3CCOCC3)sc2c1)c1c(Cl)ccc(F)c1Cl (stereo not drawn) [Example 24, 1-{6-[1-(2,6-dichloro-3-fluorophenyl)ethoxy]-1,3-benzothiazol-2-yl}-3-(2-morpholin-4-ylethyl)urea]
- pIC50 (c-MET): > 7.00
- pIC50 (MKN45 cells): > 6.30
- pIC50 (RON): > 6.30

Structure (SMILES): Cc1ccc(F)c(C(C)Oc2ccc3nc(NC(=O)NCCN4CCOCC4)sc3c2)c1Cl (stereo not drawn) [Example 28, 1-{6-[1-(2-chloro-6-fluoro-3-methylphenyl)ethoxy]-1,3-benzothiazol-2-yl}-3-(2-morpholin-4-ylethyl)urea]
- pIC50 (c-MET): > 7.00
- pIC50 (MKN45 cells): < 5.00
- pIC50 (RON): 5.00 to 6.30

Structure (SMILES): CC(Oc1cc2sc(NC(=O)NCCN3CCOCC3)nc2cc1F)c1c(Cl)cccc1Cl (stereo not drawn) [Example 29, 1-{6-[1-(2,6-dichlorophenyl)ethoxy]-5-fluoro-1,3-benzothiazol-2-yl}-3-(2-morpholin-4-ylethyl)urea]
- pIC50 (c-MET): > 7.00
- pIC50 (MKN45 cells): 5.00 to 6.30
- pIC50 (RON): > 6.30

Structure (SMILES): CC(Oc1cc2sc(NC(=O)NCCN3CCOCC3)nc2cc1F)c1c(Cl)ccc(F)c1Cl (stereo not drawn) [Example 31, 1-{6-[1-(2,6-dichloro-3-fluorophenyl)ethoxy]-5-fluoro-1,3-benzothiazol-2-yl}-3-(2-morpholin-4-ylethyl)urea]
- pIC50 (c-MET): > 7.00
- pIC50 (MKN45 cells): 5.00 to 6.30
- pIC50 (RON): > 6.30

Structure (SMILES): CC(Oc1ccc2nc(NC(=O)NCCN3CCC(Cc4ccccc4)CC3)sc2c1)c1c(Cl)ccc(F)c1Cl (stereo not drawn) [Example 34, 1-[2-(4-benzylpiperidin-1-yl)ethyl]-3-{6-[1-(2,6-dichloro-3-fluorophenyl)ethoxy]-1,3-benzothiazol-2-yl}urea]
- pIC50 (c-MET): > 7.00
- pIC50 (MKN45 cells): < 5.00
- pIC50 (RON): 5.00 to 6.30

Structure (SMILES): CC(Oc1ccc2nc(NC(=O)NCCN3CCN(Cc4ccccc4)CC3)sc2c1)c1c(Cl)ccc(F)c1Cl (stereo not drawn) [Example 35, 1-[2-(4-benzylpiperazin-1-yl)ethyl]-3-{6-[1-(2,6-dichloro-3-fluorophenyl)ethoxy]-1,3-benzothiazol-2-yl}urea]
- pIC50 (c-MET): > 7.00
- pIC50 (MKN45 cells): < 5.00
- pIC50 (RON): 5.00 to 6.30

Structure (SMILES): CC(Oc1ccc2nc(NC(=O)NCCN3CCN(C(=O)OC(C)(C)C)CC3)sc2c1)c1c(Cl)ccc(F)c1Cl (stereo not drawn) [Example 36, 1,1-dimethylethyl 4-{2-[({6-[1-(2,6-dichloro-3-fluorophenyl)ethoxy]-1,3-benzothiazol-2-yl}carbamoyl)amino]ethyl}piperazine-1-carboxylate]
- pIC50 (c-MET): > 7.00
- pIC50 (MKN45 cells): < 5.00
- pIC50 (RON): 5.00 to 6.30

Structure (SMILES): CC(Oc1ccc2nc(NC(=O)NCCN3CCNCC3)sc2c1)c1c(Cl)ccc(F)c1Cl.O=C(O)C(F)(F)F (stereo not drawn) [Example 37, 1-{6-[1-(2,6-Dichloro-3-fluorophenyl)ethoxy]-1,3-benzothiazol-2-yl}-3-(2-piperazin-1-ylethyl)urea trifluoroacetate]
- pIC50 (c-MET): 5.00 to 7.00
- pIC50 (MKN45 cells): 5.00 to 6.30
- pIC50 (RON): > 6.30

Structure (SMILES): CC(Oc1ccc2nc(NC(=O)NCCC3CCNCC3)sc2c1)c1c(Cl)ccc(F)c1Cl (stereo not drawn) [Example 39, 1-{6-[1-(2,6-Dichloro-3-fluorophenyl)ethoxy]-1,3-benzothiazol-2-yl}-3-(2-piperidin-4-ylethyl)urea trifluoroacetate]
- pIC50 (c-MET): > 7.00
- pIC50 (MKN45 cells): 5.00 to 6.30
- pIC50 (RON): > 6.30

Structure (SMILES): CC(Oc1ccc2nc(NC(=O)NCCCn3cccc3)sc2c1)c1c(Cl)ccc(F)c1Cl (stereo not drawn) [Example 40, 1-{6-[1-(2,6-dichloro-3-fluorophenyl)ethoxy]-1,3-benzothiazol-2-yl}-3-[3-(1H-pyrrol-1-yl)propyl]urea]
- pIC50 (c-MET): > 7.00
- pIC50 (MKN45 cells): < 5.00
- pIC50 (RON): 5.00 to 6.30

Structure (SMILES): CC(Oc1ccc2nc(NC(=O)NCCCN3CCC(Cc4ccccc4)CC3)sc2c1)c1c(Cl)ccc(F)c1Cl (stereo not drawn) [Example 41, 1-[3-(4-benzylpiperidin-1-yl)propyl]-3-{6-[1-(2,6-dichloro-3-fluorophenyl)ethoxy]-1,3-benzothiazol-2-yl}urea]
- pIC50 (c-MET): > 7.00
- pIC50 (MKN45 cells): < 5.00
- pIC50 (RON): 5.00 to 6.30

Structure (SMILES): CC(Oc1ccc2nc(NC(=O)NCCCN3CCOCC3)sc2c1)c1c(Cl)ccc(F)c1Cl (stereo not drawn) [Example 42, 1-{6-[1-(2,6-dichloro-3-fluorophenyl)ethoxy]-1,3-benzothiazol-2-yl}-3-(3-morpholin-4-ylpropyl)urea]
- pIC50 (c-MET): > 7.00
- pIC50 (MKN45 cells): 5.00 to 6.30
- pIC50 (RON): 5.00 to 6.30

Structure (SMILES): CC(Oc1ccc2nc(NC(=O)NCCCN(C)C)sc2c1)c1c(Cl)ccc(F)c1Cl (stereo not drawn) [Example 43, 1-{6-[1-(2,6-dichloro-3-fluorophenyl)ethoxy]-1,3-benzothiazol-2-yl}-3-[3-(dimethylamino)propyl]urea]
- pIC50 (c-MET): > 7.00
- pIC50 (MKN45 cells): < 5.00
- pIC50 (RON): > 6.30

Structure (SMILES): CC(Oc1ccc2nc(NC(=O)NCCCN3CCCCC3)sc2c1)c1c(Cl)ccc(F)c1Cl (stereo not drawn) [Example 44, 1-{6-[1-(2,6-dichloro-3-fluorophenyl)ethoxy]-1,3-benzothiazol-2-yl}-3-(3-piperidin-1-ylpropyl)urea]
- pIC50 (c-MET): > 7.00
- pIC50 (MKN45 cells): > 6.30
- pIC50 (RON): 5.00 to 6.30

Structure (SMILES): CC(Oc1ccc2nc(NC(=O)NCCCN3CCCC3=O)sc2c1)c1c(Cl)ccc(F)c1Cl (stereo not drawn) [Example 45, 1-{6-[1-(2,6-dichloro-3-fluorophenyl)ethoxy]-1,3-benzothiazol-2-yl}-3-[3-(2-oxopyrrolidin-1-yl)propyl]urea]
- pIC50 (c-MET): > 7.00
- pIC50 (MKN45 cells): 5.00 to 6.30
- pIC50 (RON): 5.00 to 6.30

Structure (SMILES): CC(Oc1ccc2nc(NC(=O)NCCCN3CCN(Cc4c(F)cccc4Cl)CC3)sc2c1)c1c(Cl)ccc(F)c1Cl (stereo not drawn) [Example 46, 1-{3-[4-(2-chloro-6-fluorobenzyl)piperazin-1-yl]propyl}-3-{6-[1-(2,6-dichloro-3-fluorophenyl)ethoxy]-1,3-benzothiazol-2-yl}urea]
- pIC50 (c-MET): > 7.00
- pIC50 (MKN45 cells): < 5.00
- pIC50 (RON): 5.00 to 6.30

Structure (SMILES): CC(Oc1ccc2nc(NC(=O)NCCCN3C(C)CCCC3C)sc2c1)c1c(Cl)ccc(F)c1Cl (stereo not drawn) [Example 47, 1-{6-[1-(2,6-dichloro-3-fluorophenyl)ethoxy]-1,3-benzothiazol-2-yl}-3-[3-(2,6-dimethylpiperidin-1-yl)propyl]urea]
- pIC50 (c-MET): > 7.00
- pIC50 (MKN45 cells): 5.00 to 6.30
- pIC50 (RON): 5.00 to 6.30

Structure (SMILES): CC(Oc1ccc2nc(NC(=O)NCCCN3CCCCCC3)sc2c1)c1c(Cl)ccc(F)c1Cl (stereo not drawn) [Example 48, 1-(3-azepan-1-ylpropyl)-3-{6-[1-(2,6-dichloro-3-fluorophenyl)ethoxy]-1,3-benzothiazol-2-yl}urea]
- pIC50 (c-MET): > 7.00
- pIC50 (MKN45 cells): < 5.00
- pIC50 (RON): > 6.30

Structure (SMILES): CC(Oc1ccc2nc(NC(=O)NCCCN3CCN(Cc4ccccc4)CC3)sc2c1)c1c(Cl)ccc(F)c1Cl (stereo not drawn) [Example 49, 1-[3-(4-benzylpiperazin-1-yl)propyl]-3-{6-[1-(2,6-dichloro-3-fluorophenyl)ethoxy]-1,3-benzothiazol-2-yl}urea]
- pIC50 (c-MET): > 7.00
- pIC50 (MKN45 cells): 5.00 to 6.30
- pIC50 (RON): 5.00 to 6.30

Structure (SMILES): CC(Oc1ccc2nc(NC(=O)NCCN3CCCCC3)sc2c1)c1c(Cl)ccc(F)c1Cl (stereo not drawn) [Example 50, 1-{6-[1-(2,6-dichloro-3-fluorophenyl)ethoxy]-1,3-benzothiazol-2-yl}-3-(2-piperidin-1-ylethyl)urea]
- pIC50 (c-MET): > 7.00
- pIC50 (MKN45 cells): 5.00 to 6.30
- pIC50 (RON): 5.00 to 6.30
